The results in this text go back to patent publication US9187426B2, “Organic compounds” (Novartis AG, priority 2008, dated 2015).

The term melting point denotes the temperature, or range, at which the solid turns liquid.

Structures can show the parent of a compound that is named as a salt.

As for `O=C(NCc1ccccc1)c1ccnc(NC(=O)C2CCCC2)c1` [Example 6.2, N-benzyl-2-(cyclopentanecarboxamido)isonicotinamide], the melting point was in the range of 55 to 57 °C. Regarding `O=C(NCc1nccs1)c1ccnc(N2CCN(Cc3ccc(F)cc3)C2=O)c1` [Example 14.3, 2-(3-(4-fluorobenzyl)-2-oxoimidazolidin-1-yl)-N-(thiazol-2-ylmethyl)isonicotinamide], the melting point lay within 123 to 125 °C. The figure for `COc1ccc(C(=O)Nc2cc(C(=O)NCc3ccccc3)ccn2)cc1` [Example 6.5, N-benzyl-2-(4-methoxybenzamido)isonicotinamide] is 165 to 166 °C.

Take `O=C(Nc1cc(-c2nc(-c3ccccc3)c[nH]2)ccn1)c1ccccc1` [Example 10.5, N-(4-(4-phenyl-1H-imidazol-2-yl)pyridin-2-yl)benzamide]: the melting point lay in the range of 265 to 267 °C. For the compound `O=C(NCc1cnc(Cl)s1)c1ccnc(N2CCN(Cc3ccc(C(F)(F)F)cc3)C2=O)c1` [Example 26.20, N-((2-Chlorothiazol-5-yl)methyl)-2-(2-oxo-3-(4-(trifluoromethyl)-benzyl)imidazolidin-1-yl)isonicotinamide], the melting point lay in the range of 209 to 211 °C. `O=C(NCc1ccc(F)cc1)c1ccnc(N2CCN(C(F)(F)c3ccc(C(F)F)cc3)C2=O)c1` [Example 15.21, 2-(3-((4-(difluoromethyl)phenyl)difluoromethyl)-2-oxoimidazolidin-1-yl)-N-(4-fluorobenzyl)isonicotinamide] showed a melting point of 173 to 175 °C. Regarding `O=C(NCc1ccon1)c1ccnc(N2CCN(Cc3ccc(F)cc3)C2=O)c1` [Example 14.14, 2-(3-(4-fluorobenzyl)-2-oxoimidazolidin-1-yl)-N-(isoxazol-3-ylmethyl)isonicotinamide], the melting point fell in the range of 127 to 129 °C.

`CC(C)Cc1c[nH]c(-c2ccnc(NC(=O)c3ccccc3)c2)n1` [Example 10.3, N-(4-(4-isobutyl-1H-imidazol-2-yl)pyridin-2-yl)benzamide] showed a melting point of 103 to 105 °C. `O=C(NCc1cncs1)c1ccnc(N2CCN(Cc3ccc(OC(F)(F)F)cc3)C2=O)c1` [Example 26.14, 2-(2-Oxo-3-(4-(trifluoromethoxy)benzyl)imidazolidin-1-yl)-N-(thiazol-5-ylmethyl)-isonicotinamide] showed a melting point of 189 to 191 °C. In turn, `O=C(NCc1ccccc1)c1ccnc(NC(=O)c2ccc(OC(F)(F)F)cc2)c1` [Example 5.1, N-benzyl-2-(4-trifluoromethoxybenzoylamino)isonicotinamide] came in with a melting point of 151 to 153 °C. On to `O=C(NCc1ccc(C(F)(F)F)cc1)c1ccnc(NC(=O)c2ccccc2)c1` [Example 1, 2-benzamido-N-(4-(trifluoromethyl)benzyl)isonicotinamide], for which the melting point was in the range of 165 to 168 °C. Compound `Cc1c[nH]c(-c2ccnc(NC(=O)c3ccccc3)c2)n1` [Example 10, N-(4-(4-methyl-1H-imidazol-2-yl)pyridin-2-yl)benzamide] showed a melting point of 133 to 135 °C. The compound `O=C(NCc1cc[nH]n1)c1ccnc(N2CCN(Cc3ccc(F)cc3)C2=O)c1` [Example 14.9, N-((1H-pyrazol-3-yl)methyl)-2-(3-(4-fluorobenzyl)-2-oxoimidazolidin-1-yl)isonicotinamide] displayed a melting point of 178 to 180 °C. In turn, `O=C(NCc1cnc(Cl)s1)c1ccnc(N2CCN(Cc3ccc(F)c(F)c3)C2=O)c1` [Example 26.33, N-((2-Chlorothiazol-5-yl)methyl)-2-(3-(3,4-difluorobenzyl)-2-oxoimidazolidin-1-yl)isonicotinamide] showed a melting point of 161 to 163 °C.

`Cc1nc(CNC(=O)c2ccnc(N3CCN(Cc4ccc(F)cc4)C3=O)c2)cs1` [Example 14.13, 2-(3-(4-fluorobenzyl)-2-oxoimidazolidin-1-yl)-N-((2-methylthiazol-4-yl)methyl)isonicotinamide]: the melting point lay in the range of 76 to 78 °C.

Consider `COc1cc(C(=O)NCc2ccccc2)cc(NC(=O)c2ccccc2)n1` [Example 6.17, 2-benzamido-N-benzyl-6-methoxyisonicotinamide], for which the melting point was 132 to 133 °C. The figure for `O=C(NCc1ccccc1)c1ccnc(NC(=O)c2cccc3ccccc23)c1` [Example 6.7, 2-(1-naphthamido)-N-benzylisonicotinamide] is 65 to 67 °C. The figure for `Cn1cc(CNC(=O)c2ccnc(N3CCN(Cc4ccc(F)cc4)C3=O)c2)cn1` [Example 14.8, 2-(3-(4-fluorobenzyl)-2-oxoimidazolidin-1-yl)-N-((1-methyl-1H-pyrazol-4-yl)methyl)isonicotinamide] is 165 to 166 °C.

The compound `O=C(NCc1ccccc1)c1ccnc(-n2ccc(OCc3ccccc3)cc2=O)c1` [Example 19, 4-benzyloxy-2-oxo-2H-[1,2′]bipyridinyl-4′-carboxylic acid benzylamide] registered a melting point of 158 to 161 °C. `O=C(NCc1cnc(Cl)s1)c1ccnc(N2CCN(Cc3ccc(F)cc3)C2=O)c1` [Example 26.11, N-((2-Chlorothiazol-5-yl)methyl)-2-(3-(4-fluorobenzyl)-2-oxoimidazolidin-1-yl)isonicotinamide] registered a melting point of 185 to 186 °C. `O=C(NCc1ccccc1)c1ccnc(NC(=O)c2cccc(C(F)(F)F)c2)c1` [Example 6.15, N-benzyl-2-(3-(trifluoromethyl)benzamido)isonicotinamide] yielded a melting point of 126 to 128 °C. As for `O=C(NCc1ccccc1)c1ccnc(-n2cnn(CC3CC3)c2=O)c1` [Example 15.13, N-benzyl-2-(1-(cyclopropylmethyl)-5-oxo-1H-1,2,4-triazol-4(5H)-yl)isonicotinamide], the melting point fell in the range of 137 to 139 °C. In the case of `O=C(Nc1cc(-c2nnc(-c3ccccc3)o2)ccn1)c1ccccc1` [Example 11, N-(4-(5-phenyl-1,3,4-oxadiazol-2-yl)pyridin-2-yl)benzamide], the melting point was in the range of 151 to 155 °C. Compound `O=C(NCc1ccccc1)c1cc[n+]([O-])c(NC(=O)c2ccccc2)c1` [Example 7, 2-benzamido-N-benzylisonicotinamide-1-N-oxide] returned a melting point of 198 to 201 °C. As for `O=C(NCc1ccccc1)c1ccnc(-n2ccc(O)cc2=O)c1` [Example 20, 4-hydroxy-2-oxo-2H-[1,2′]bipyridinyl-4′-carboxylic acid benzylamide], the melting point was in the range of 102 to 105 °C. The figure for `O=C(NCc1ccncc1)c1ccnc(N2CCN(Cc3ccc(F)cc3)C2=O)c1` [Example 15.2, 2-(3-(4-fluorobenzyl)-2-oxoimidazolidin-1-yl)-N-(pyridin-4-ylmethyl)isonicotinamide] is 205 to 207 °C; for `O=C(NCc1cccnc1)c1ccnc(N2CCN(CC3CC3)C2=O)c1` [Example 15.9, 2-(3-(cyclopropylmethyl)-2-oxoimidazolidin-1-yl)-N-(pyridin-3-ylmethyl)isonicotinamide] it is 122 to 123 °C; for `O=C(NCc1ccccn1)c1ccnc(N2CCN(Cc3ccc(F)cc3)C2=O)c1` (as salt: hydrochloride) [Example 15.3, 2-(3-(4-fluorobenzyl)-2-oxoimidazolidin-1-yl)-N-(pyridin-2-ylmethyl)isonicotinamide dihydrochloride] it is 141 to 143 °C. Compound `O=C(NCc1ccccc1)c1ccnc(NC(=O)c2cc(F)ccc2Cl)c1` [Example 6.9, N-benzyl-2-(2-chloro-5-fluorobenzamido)isonicotinamide] returned a melting point of 180 to 181 °C. The same measure for `O=C(Nc1cc(-c2nnc(Cc3ccccc3)o2)ccn1)c1ccccc1` [Example 11.1, N-[4-(5-benzyl-[1,3,4]oxadiazol-2-yl)-pyridin-2-yl]benzamide]: 187 to 189 °C; for `CNC(=O)c1ccnc(N2CCN(Cc3ccc(F)cc3)C2=O)c1` [Example 13, 2-(3-(4-fluorobenzyl)-2-oxoimidazolidin-1-yl)-N-methylisonicotinamide]: 118 to 120 °C. Compound `O=C(NCc1cncs1)c1ccnc(N2CCN(Cc3ccc(F)c(F)c3)C2=O)c1` [Example 26.24, 2-(3-(3,4-Difluorobenzyl)-2-oxoimidazolidin-1-yl)-N-(thiazol-5-ylmethyl)-isonicotinamide] yielded a melting point of 111 to 113 °C. Compound `Cc1nnc(CNC(=O)c2ccnc(N3CCN(Cc4ccc(F)cc4)C3=O)c2)o1` [Example 26.1, 2-(3-(4-Fluorobenzyl)-2-oxoimidazolidin-1-yl)-N-((5-methyl-1,3,4-oxadiazol-2-yl)methyl)isonicotinamide] had a melting point of 136 to 138 °C.

The compound `O=C(NCc1ccc(F)c(F)c1)c1ccnc(N2CCN(Cc3ccc(F)cc3)C2=O)c1` [Example 15.14, N-(3,4-difluorobenzyl)-2-(3-(4-fluorobenzyl)-2-oxoimidazolidin-1-yl)isonicotinamide] displayed a melting point of 182 to 183 °C. The same measure for `O=C(NCc1ccccn1)c1ccnc(N2CCN(CC3CC3)C2=O)c1` [Example 15.10, 2-(3-(cyclopropylmethyl)-2-oxoimidazolidin-1-yl)-N-(pyridin-2-ylmethyl)isonicotinamide]: 122 to 123 °C; for `O=C(NCc1ccccc1)c1ccnc(N2CCN(Cc3ccncc3)C2=O)c1` [Example 15.19, N-benzyl-2-(2-oxo-3-(pyridin-4-ylmethyl)imidazolidin-1-yl)isonicotinamide]: 154 to 156 °C. Regarding `O=C(NCc1cc(Br)no1)c1ccnc(N2CCN(Cc3ccc(F)cc3)C2=O)c1` [Example 26.9, N-((3-Bromoisoxazol-5-yl)methyl)-2-(3-(4-fluorobenzyl)-2-oxoimidazolidin-1-yl)isonicotinamide], the melting point was 178 to 180 °C.

`O=C(NCc1csc(C(F)(F)F)n1)c1ccnc(N2CCN(Cc3ccc(F)cc3)C2=O)c1` [Example 14.15, 2-(3-(4-fluorobenzyl)-2-oxoimidazolidin-1-yl)-N-((2-(trifluoromethyl)thiazol-4-yl)methyl)isonicotinamide] displayed a melting point of 66 to 68 °C. The figure for `O=C(NCc1ccccc1)c1ccnc(N2CCN(CC3CC3)C2=O)c1` [Example 15.8, N-benzyl-2-(3-(cyclopropylmethyl)-2-oxoimidazolidin-1-yl)isonicotinamide] is 121 to 123 °C.
